This note sets out measurements from US20170303574A1, “COMPOUNDS, COMPOSITIONS, AND METHODS FOR MODULATING SWEET TASTE” (Chromocell Corporation, priority 2014, published 2017).

Marks after values point to notes of the source that are not given here. Some results are limits rather than exact numbers.

Holding throughout (type): in vivo, humans
Assay [1] relates to perception of sweet taste of high fructose cornsyrup (HFCS). Kind of assay: 2AFC assessment of increase in perceived sweetness of HFCS solution. The note with it: for Compound concentration with positive 2AFC results: in 5brix HFCS test sample; for Fold increase in perceived sweetness: positive control concentration surpassed divided by test sample concentration (5brix HFCS), approximate; for Sweetener Concentration of positive control surpassed by test sample: test sample 5brix HFCS plus compound, 2AFC sip and spit, panelists n≧15. The method, then:
Effect of test compounds on the perception of sweet taste of high fructose cornsyrup (HFCS) two-alternative forced choice method (2AFC). The effect of the test compounds on the perception of the sweet taste of an aqueous solution of sweetener in humans was evaluated using a two-alternative forced choice “sip and spit” method (2AFC). The aqueous sweetener solutions were prepared by adding sucrose equivalent (SE) quantities of high fructose corn syrup (HFCS) (by weight), to water to achieve the desired concentration. The aqueous solutions ranged in pH from pH 2.5-pH 7. Compounds of the invention were first prepared as a 500-fold concentrated stock solution in 100% ethanol. These concentrated stocks were then added to the aqueous sweetener solutions to result in a final ethanol concentration of 0.2%. The control (positive and negative) samples were also normalized to 0.2% ethanol. This level of ethanol was not seen to contribute any perceived sweetness. The 2AFC test used for compound evaluation was a double blinded and randomized test where taste panelists (n≧15) evaluate a pair of sweetener solutions at a time—one sample contains aqueous sweetener solution plus compound (i.e. test) while the other contains aqueous sweetener solution at higher concentration without compound (i.e. positive control). Each test sample was compared against a positive control. For example, if the test sample contained 1× sweetener concentration with compound (e.g. 5brix HFCS with compound), the positive control sample contained a 1.1× sweetener concentration (e.g. 5.5brix HFCS without compound). […] Panelists were instructed not to eat or drink (except water) for at least 1 hour before the test. During the test, panelists were instructed to sip each sample, swirl it around their mouth and then expectorate. After tasting each sample in the pair, panelists were instructed to record the sample that is “sweeter” in taste. Panelists cleansed their palates by rinsing with water, eating a cracker and waiting for an interval of about 5 minutes. All samples were tasted at ambient temperatures. Data were analyzed using binomial probabilities. Approximate levels of sweetness enhancement in column 5 of Table 2 were calculated as follows: Approximate levels of sweetness enhancement=Sweetener concentration of positive control surpassed by the test sample, divided by sweetener concentration for compound-containing sample (e.g.1.3×=6.5brix HFCS/5brix HFCS).

For assay [2], the system named is perception of the sweet taste in a flavored aqueous environment. Kind of assay: Descriptive analysis (DA) panel: sweetness enhancement in HFCS sweetened lemon lime matrix. To be noted: for Fold enhancement of sweetness perception as compared to control sample: vs negative control; for Perceived sweetness (spider plot, vs control sweetener solution): lemon-lime matrix sweetened with HFCS, pH 7. How it is done: The effect of the test compound on the perception of the sweet taste in a flavored aqueous environment, in the presence of carbohydrate sweeteners, was evaluated using a descriptive analysis methodology with a group of trained panelists, as follows.
The panel used in this example was trained to reference sweet attributes in an absolute manner, such that a particular concentration of sweetener is always measured by the panelists at the same point using a 15 cm line scale where each cm represents a 1% increase in sucrose to cover the range of 0% to 15% sucrose. For the rest of the attributes, the panel was trained using a hybrid approach between descriptive analysis methods well-known to those skilled in the art.
The trained panel was then used for a descriptive analysis assessment for Compound 2 and Compound 5 in flavored lemon lime matrix. Compound 2 was assessed at a dose of 50 ppm and Compound 5 was assessed at a dose of 20 ppm for sweetness enhancement in high fructose corn syrup (HFCS) sweetened lemon lime matrix.
The flavored sweetener solutions were prepared by adding sucrose equivalent quantities of HFCS (by weight), to lemon lime matrix to achieve the desired concentration. Compound was first prepared as a 500-fold concentrated stock solution in 100% ethanol. The concentrated stocks were then added to the flavored sweetener solutions to result in a final ethanol concentration of 0.2%. The control (positive and negative) samples were also normalized to 0.2% ethanol. This level of ethanol was not seen to contribute any perceived sweetness
(§1) Both control (flavored sweetener solutions without compound) and variant (flavored sweetener solutions with compound) samples were blinded and randomized. Samples were presented in monadic order and panelists were instructed to sip the sample, swirl it in their mouths and expectorate. A total of 7 attributes including sweet, bitter, sour, licorice and thickness were assessed for each sample. For the sweet attribute, panelists made an absolute scoring on a 15 cm line scale where each cm represents a 1% increase in sucrose to cover the range of 0% to 15% sucrose. After each sample assessment, panelists performed a standard palate cleansing protocol, and observed an inter-sample interval time (ISI). All samples were evaluated at ambient temperatures.
Data was collected and exported electronically utilizing FIZZ sensory software. Data analysis was conducted using SENPAQ version 5.0 software that uses tools such as ANOVA, Fisher's LSD, correlation to determine panel performance as well as significant differences between samples and attributes.
The letter “a” indicates significant differences among the samples at 95% confidence level. Fold enhancement (increase in perceived sweetness) was calculated by dividing the DA panel average intensity score observed for a variant sample by that observed for the negative control sample.

Assay [3] has as its system perception of non-sweet taste attributes (such as bitterness). In words: Descriptive analysis (DA) panel: non-sweet taste attributes in lemon lime matrix (spider plots). The note with it: lemon-lime matrix sweetened with HFCS, pH 7. The method, then:
The effect of the test compound on the perception of non-sweet taste attributes (such as bitterness) in a flavored aqueous environment, in the presence of carbohydrate sweeteners, was evaluated using a descriptive analysis methodology with a group of trained panelists, as follows. This occurred as part of DA assessment described previously in Example 3.
The trained panel was then used for a descriptive analysis assessment for Compound 2 and Compound 5 in lemon lime flavored matrix, sweetened with high fructose corn syrup (HFCS), at a test dose of 50 ppm and 20 ppm, respectively.
as §1, with “All control and variant samples were prepared as described in Example 3. Both” for “Both”, “sample.” for “sample. For the sweet attribute, panelists made an absolute scoring on a 15 cm line scale where each cm represents a 1% increase in sucrose to cover the range of 0% to 15% sucrose.”
Data was collected and exported electronically utilizing FIZZ sensory software. […]

Where [4] appears, read: Compound 5 @ 20 ppm in 6.67brix HFCS lemon lime matrix.
The mark [5] stands for this setting: Compound 2 @ 50 ppm in 7.7brix HFCS lemon lime matrix.

As to `COc1ccc(C2CCc3ccc(O)c(C)c3O2)cc1O` (racemic) [Compound 1, 2-(3-hydroxy-4-methoxyphenyl)-8-methylchroman-7-ol], in assay [1], the “Compound concentration with positive 2AFC results” value (“Compound concentration” below) is reported as 35 ppm, the “Fold increase in perceived sweetness” value is reported as greater than 1.2X and the “Sweetener Concentration of positive control surpassed by test sample” value (“Sweetener Concentration” below) is listed as 6brix HFCS.
As to `COc1ccc(C2CCc3cc(C)c(O)cc3O2)cc1O` (racemic) [Compound 4, 2-(3-hydroxy-4-methoxyphenyl)-6-methylchroman-7-ol], in assay [1], the “Compound concentration” value stood at 20 ppm, the “Fold increase in perceived sweetness” value is greater than 1.3X and the “Sweetener Concentration” value worked out at 6.5brix HFCS.
Regarding `COc1ccc(C2CCc3cc(C)c(O)cc3O2)cc1O` (single isomer, unassigned; (-)) [Compound 5, (−)-2-(3-hydroxy-4-methoxyphenyl)-6-methylchroman-7-ol], in assay [1], the “Compound concentration” value came out at 20 ppm, the “Fold increase in perceived sweetness” value is reported as greater than 1.5X and the “Sweetener Concentration” value was 7.5brix HFCS. In assay [2] (setting [4]), the “Average Sweetness Intensity Score w/ ANOVA (on 15 cm scale)” value was 9.7^a and the “Fold enhancement of sweetness perception as compared to control sample” value worked out at 1.47X. Besides, the “Perceived sweetness (spider plot, vs control sweetener solution)” value in assay [2] is recorded as “significant increase in perceived sweetness”. Further, in assay [3], the “Other attributes including astringent, licorice and bitter (spider plot, vs control)” value was “observed to be significant”.
As to `COc1ccc([C@@H]2CCc3ccc(O)c(C)c3O2)cc1O` [Compound 2, (S)-2-(3-hydroxy-4-methoxyphenyl)-8-methylchroman-7-ol], in assay [1], the “Compound concentration” value came to 50 ppm, the “Fold increase in perceived sweetness” value is greater than 1.3X and the “Sweetener Concentration” value is reported as 6.5brix HFCS. In assay [2] (setting [5]), the “Average Sweetness Intensity Score w/ ANOVA (on 15 cm scale)” value is 10.3^a and the “Fold enhancement of sweetness perception as compared to control sample” value is on record as 1.43X. The “Perceived sweetness (spider plot, vs control sweetener solution)” value in assay [2] is listed as “significant increase in perceived sweetness”. Moreover, in assay [3], the “Other attributes including astringent, licorice and bitter (spider plot, vs control)” value is given as “observed to be significant”.
